Source: patent US11479556B1, “Bifunctional compounds for degrading BTK via ubiquitin proteosome pathway” (NURIX THERAPEUTICS, INC., priority 2018, dated 2022)

How the values were obtained:
BTK [1] = target: T1, BTK (Homo sapiens, UniProt Q06187); assay: Cellular BTK HTRF assay (BTK degradation) in TMD8 cells; assay type: cell-based; details: four hours incubation, Total-BTK HTRF relative to DMSO-treated cells
T1 construct: endogenous in cells; host or cells: TMD8 cells
How it was run: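 TMD8 cells were treated with compounds (final DMSO <0.200) for four hours at 37° C, 5% CO2, then lysed for 30 minutes. Total BTK was measured by two-antibody HTRF, taking the 665/620 nm ratio with background subtracted and expressed relative to DMSO-treated cells. DC50 came from four-parameter nonlinear regression.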

BTK [2] = target: T2, BTK (Mus musculus, UniProt P35991); assay: Mouse BTK degradation assay with oral dosing; assay type: in vivo; details: CD-1 or BALB/c mice, oral gavage (PO); Yes = significant BTK degradation upon oral dosage
T2 construct: from tissue; host or cells: whole blood or spleen of CD-1 or BALB/c mice
Protocol: Example 68: Mouse BTK Degradation Assay with Oral Dosing
A method of determining the pharmacodynamic profile of compounds of the present invention (experimental compound) was performed by dosing either CD-1 or BALB/c mice with the compound. The experimental compound was prepared in a suitable formulation and was administered via oral gavage (PO) at a suitable dose level and frequency as informed by prior pharmacokinetic and tolerability studies. Following administration of the experimental compound, BTK levels in blood or splenocytes are measured using flow cytometry or HTRF. For assessment of BTK levels via flow cytometry, either whole blood or spleen were first treated with ACK RBC lysis buffer to facilitate lysing of red blood cells. Remaining cells were then stained with fluorophore-conjugated antibodies against CD45, TCR beta and CD45R (B220). Cell pellets were washed with 1×PBS and fixed and permeabilized for 24 hrs with Foxp3/Transcription Factor Fixation/Permeabilization Kit. Cells were then stained intracellularly with unconjugated BTK antibody and detected with a fluorophore-conjugated secondary antibody. Stained cells were run on an Attune NxT Acoustic Focusing Flow Cytometer (Thermo-Fisher A29004), and data was analyzed using FlowJo (v10.5.3) and GraphPad Prism (v7.00) software. Lymphocytes were gated for B cells defined as CD45+ TCR beta− B220+ and T cells as CD45+ TCR beta+ B220−. The BTK geometric mean fluorescence intensity (MFI) was calculated for B and T cells. Percent BTK degradation for each experimental compound treated sample was calculated using the equation described below: […]

Aiolos = target: T3, Aiolos (Homo sapiens, UniProt Q96SW2+Q9UKT9); assay: Aiolos degradation flow cytometry assay in human PBMCs (T cells); assay type: cell-based; details: 24 hours, T cells (CD3+CD20-), read-out: Aiolos T Cell DC50
T3 construct: Frozen human peripheral blood mononuclear cells (PBMCs) were thawed and treated with DMSO or compound for 24 hours; endogenous in cells; host or cells: human PBMCs (T cells gated CD3+CD20-)
Protocol: Example 67: Aiolos Degradation Assay
Frozen human peripheral blood mononuclear cells (PBMCs) were thawed and treated with DMSO or compound for 24 hours and then fixed and permeabilized using a Foxp3/Transcription Factor Fixation/Permeabilization Kit (eBioscience, 00-5523). Cells were stained with fluorophore-conjugated antibodies against CD20 (Biolegend 302330), CD3 (BD Pharmingen 552127), and Aiolos (Biolegend 371106). An additional set of DMSO-treated PBMCs was stained for CD20, CD3, and an AlexaFluor 647-conjugated mouse IgG1 isotype control antibody (Biolegend 400136). Stained cells were analyzed using an Attune NxT Acoustic Focusing Flow Cytometer (Thermo-Fisher A29004), and data was analyzed using FlowJo (v10.5.3) and GraphPad Prism (v7.00) software. Single lymphocytes were gated for B cells (CD20+CD3−) and T cells (CD3+CD20−), and the geometric mean fluorescence intensity (MFI) of Aiolos was calculated for each population. The MFI of the isotype control was calculated for each population and used to quantify background staining. Percent Aiolos degradation was calculated for each compound-treated sample using the following equation: […]
Four-parameter non-linear regressions were performed in GraphPad Prism 7.02 to obtain DC50 values. Aiolos T Cell DC50 values are provided in Table 4, wherein A<10.0 nM, 10.0 nM≤B≤1000 nM, and 1000 nM<C.

T2 sequence (P35991 whole entry): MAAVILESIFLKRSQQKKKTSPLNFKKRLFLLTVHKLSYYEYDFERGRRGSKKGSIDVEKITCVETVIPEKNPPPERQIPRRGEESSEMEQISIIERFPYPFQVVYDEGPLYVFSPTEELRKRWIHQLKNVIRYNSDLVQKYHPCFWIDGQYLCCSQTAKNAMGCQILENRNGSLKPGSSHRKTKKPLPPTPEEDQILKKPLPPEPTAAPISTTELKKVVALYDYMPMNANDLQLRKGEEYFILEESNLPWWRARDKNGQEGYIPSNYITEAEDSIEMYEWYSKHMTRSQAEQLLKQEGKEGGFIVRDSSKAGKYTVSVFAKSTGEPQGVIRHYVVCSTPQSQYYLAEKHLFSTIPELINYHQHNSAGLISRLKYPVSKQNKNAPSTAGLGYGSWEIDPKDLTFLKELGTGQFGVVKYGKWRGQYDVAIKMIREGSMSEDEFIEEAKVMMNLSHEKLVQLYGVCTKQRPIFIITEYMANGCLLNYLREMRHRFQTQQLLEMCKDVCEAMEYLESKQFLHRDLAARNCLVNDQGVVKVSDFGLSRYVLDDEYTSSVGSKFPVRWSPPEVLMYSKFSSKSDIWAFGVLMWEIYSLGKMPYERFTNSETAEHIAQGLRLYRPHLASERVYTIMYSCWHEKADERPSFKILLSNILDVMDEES
T3 sequence (Q9UKT9 whole entry): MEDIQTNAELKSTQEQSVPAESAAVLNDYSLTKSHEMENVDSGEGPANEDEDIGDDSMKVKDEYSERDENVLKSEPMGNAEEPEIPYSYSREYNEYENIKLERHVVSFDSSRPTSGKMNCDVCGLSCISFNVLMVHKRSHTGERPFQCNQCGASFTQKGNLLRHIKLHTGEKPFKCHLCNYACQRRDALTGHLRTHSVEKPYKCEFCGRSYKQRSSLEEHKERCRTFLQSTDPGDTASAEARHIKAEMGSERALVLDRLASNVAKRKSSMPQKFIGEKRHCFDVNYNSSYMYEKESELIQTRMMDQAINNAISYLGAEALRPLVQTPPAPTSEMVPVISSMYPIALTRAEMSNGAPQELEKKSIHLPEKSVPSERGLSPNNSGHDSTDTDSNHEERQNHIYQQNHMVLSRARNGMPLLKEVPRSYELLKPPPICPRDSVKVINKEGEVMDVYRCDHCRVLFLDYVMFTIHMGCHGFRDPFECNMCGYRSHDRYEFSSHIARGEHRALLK
T3 sequence (Q96SW2 whole entry): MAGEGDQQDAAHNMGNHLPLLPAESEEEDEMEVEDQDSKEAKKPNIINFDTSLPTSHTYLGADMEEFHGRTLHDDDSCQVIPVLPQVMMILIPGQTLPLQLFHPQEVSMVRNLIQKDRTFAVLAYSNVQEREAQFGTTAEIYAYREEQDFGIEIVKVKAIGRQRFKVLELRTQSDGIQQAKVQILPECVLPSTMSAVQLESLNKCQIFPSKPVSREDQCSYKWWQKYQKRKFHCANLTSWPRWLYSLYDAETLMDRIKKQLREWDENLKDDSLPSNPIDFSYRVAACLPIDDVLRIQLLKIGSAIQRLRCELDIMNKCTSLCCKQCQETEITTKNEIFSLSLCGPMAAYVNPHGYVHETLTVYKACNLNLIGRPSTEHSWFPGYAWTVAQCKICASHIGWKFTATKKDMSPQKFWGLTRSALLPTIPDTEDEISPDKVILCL
T3 sequence (Q16531 whole entry partner): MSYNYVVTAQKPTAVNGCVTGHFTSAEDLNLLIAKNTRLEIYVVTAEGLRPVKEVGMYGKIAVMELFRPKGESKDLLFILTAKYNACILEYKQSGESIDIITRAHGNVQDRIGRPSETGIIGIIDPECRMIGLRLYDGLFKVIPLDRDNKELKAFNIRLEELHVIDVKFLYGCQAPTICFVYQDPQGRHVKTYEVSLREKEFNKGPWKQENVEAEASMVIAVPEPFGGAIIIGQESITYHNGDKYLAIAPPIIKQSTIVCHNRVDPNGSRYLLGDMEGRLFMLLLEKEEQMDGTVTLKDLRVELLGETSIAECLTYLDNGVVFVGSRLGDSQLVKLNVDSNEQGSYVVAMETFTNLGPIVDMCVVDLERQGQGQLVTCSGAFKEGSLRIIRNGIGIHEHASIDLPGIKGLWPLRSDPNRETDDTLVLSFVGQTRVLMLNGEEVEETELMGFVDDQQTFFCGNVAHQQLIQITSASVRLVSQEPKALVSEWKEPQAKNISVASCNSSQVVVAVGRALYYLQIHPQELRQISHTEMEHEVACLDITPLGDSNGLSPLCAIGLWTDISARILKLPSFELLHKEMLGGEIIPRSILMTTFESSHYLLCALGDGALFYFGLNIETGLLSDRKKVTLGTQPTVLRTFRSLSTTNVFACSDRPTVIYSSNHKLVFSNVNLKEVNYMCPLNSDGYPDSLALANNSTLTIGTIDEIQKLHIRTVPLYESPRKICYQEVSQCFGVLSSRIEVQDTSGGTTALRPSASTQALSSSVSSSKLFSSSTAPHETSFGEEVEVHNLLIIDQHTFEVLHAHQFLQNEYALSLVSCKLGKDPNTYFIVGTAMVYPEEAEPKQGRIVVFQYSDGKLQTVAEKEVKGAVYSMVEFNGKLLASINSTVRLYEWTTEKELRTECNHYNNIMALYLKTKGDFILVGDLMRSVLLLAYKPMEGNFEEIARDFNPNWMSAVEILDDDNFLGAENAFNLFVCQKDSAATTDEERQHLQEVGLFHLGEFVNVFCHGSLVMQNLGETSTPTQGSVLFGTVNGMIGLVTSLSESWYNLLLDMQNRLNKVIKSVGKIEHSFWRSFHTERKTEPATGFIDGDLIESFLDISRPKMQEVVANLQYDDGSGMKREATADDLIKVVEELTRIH
T1 sequence (Q06187 whole entry): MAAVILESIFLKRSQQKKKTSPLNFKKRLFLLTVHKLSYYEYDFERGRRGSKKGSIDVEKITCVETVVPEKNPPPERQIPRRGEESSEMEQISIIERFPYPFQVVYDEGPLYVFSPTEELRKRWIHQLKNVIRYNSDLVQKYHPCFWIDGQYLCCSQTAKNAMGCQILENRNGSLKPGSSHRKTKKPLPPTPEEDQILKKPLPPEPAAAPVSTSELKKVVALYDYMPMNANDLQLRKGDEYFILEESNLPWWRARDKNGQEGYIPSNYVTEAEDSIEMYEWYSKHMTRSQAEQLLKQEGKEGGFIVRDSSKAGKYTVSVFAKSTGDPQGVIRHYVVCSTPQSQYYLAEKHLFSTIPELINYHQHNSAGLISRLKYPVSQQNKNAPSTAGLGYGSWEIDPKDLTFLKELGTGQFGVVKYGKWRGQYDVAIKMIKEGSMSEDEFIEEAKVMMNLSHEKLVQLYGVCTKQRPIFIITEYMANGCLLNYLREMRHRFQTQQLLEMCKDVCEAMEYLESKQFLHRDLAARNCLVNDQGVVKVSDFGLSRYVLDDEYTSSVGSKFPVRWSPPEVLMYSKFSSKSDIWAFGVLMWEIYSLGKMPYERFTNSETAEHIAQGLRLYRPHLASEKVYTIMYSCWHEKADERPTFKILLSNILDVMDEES

SMILES	DC50 (BTK [1]) [nM]	BTK degradation after oral dosing (BTK [2])	DC50 (Aiolos) [nM]
NC(=O)c1ncc(-c2nccs2)nc1Nc1ccc(N2CCC3(CCN(Cc4ccc5c(c4)C(=O)N(C4CCC(=O)NC4=O)C5=O)CC3)CC2)cc1 (stereo not drawn) [Compound 150]	5 to 15	Yes	
NC(=O)c1ncc(N2CCC[C@H](N3CCOC3=O)C2)nc1Nc1ccc(N2CCC(C3CN(c4ccc5c(c4)C(=O)N(C4CCC(=O)NC4=O)C5=O)C3)CC2)cc1 (stereo partly drawn) [Compound 70]	< 5	Yes	
CN1CCN([C@@H]2CCCN(c3cnc(C(N)=O)c(Nc4ccc(C5CCN(CC6CCN(c7ccc8c(=O)n(C9CCC(=O)NC9=O)ccc8c7)CC6)CC5)cc4)n3)C2)C1=O (stereo partly drawn) [Compound 72]	< 5	Yes	
CN1CCN([C@H]2CCCN(c3cnc(C(N)=O)c(Nc4ccc(N5CCN(CC#Cc6cccc7c6CN(C6CCC(=O)NC6=O)C7=O)CC5)cc4)n3)C2)C1=O (stereo partly drawn) [Compound 99]	< 5		> 1000
CN1CCN([C@@H]2CCCN(c3cnc(C(N)=O)c(Nc4ccc(C5CCN(CC6CCN(c7ccc8c(c7)C(=O)N(C7CCC(=O)NC7=O)C8=O)CC6)CC5)cc4)n3)C2)C1=O (stereo partly drawn) [Compound 51]	< 5		10 to 1000
CN1CCN([C@@H]2CCCN(c3cnc(C(N)=O)c(Nc4ccc(N5CCC6(CCCN(c7ccc8c(c7)C(=O)N(C7CCC(=O)NC7=O)C8=O)C6)CC5)cc4)n3)C2)C1=O (stereo partly drawn) [Compound 29]	< 5		> 1000
CN1CCN([C@H]2CCCN(c3cnc(C(N)=O)c(Nc4ccc(C5(C)CCN(C6CN(c7ccc8c(c7)C(=O)N(C7CCC(=O)NC7=O)C8=O)C6)CC5)cc4)n3)C2)C1=O (stereo partly drawn) [Compound 74]	< 5	Yes	
CN1CCN([C@@H]2CCCN(c3cnc(C(N)=O)c(Nc4ccc(C5(C)CCN(C[C@H]6CCN(c7ccc8c(c7)C(=O)N(C7CCC(=O)NC7=O)C8=O)C6)CC5)cc4)n3)C2)C1=O (stereo partly drawn) [Compound 71]	< 5	Yes	
CN1CCN([C@@H]2CCCN(c3cnc(C(N)=O)c(Nc4ccc(N5CC6(C5)CN(c5ccc7c(c5)C(=O)N(C5CCC(=O)NC5=O)C7=O)C6)cc4)n3)C2)C1=O (stereo partly drawn) [Compound 34, 3-((4-(6-(2-(2,6-dioxopiperidin-3-yl)-1,3-dioxoisoindolin-5-yl)-2,6-diazaspiro[3.3]heptan-2-yl)phenyl)amino)-5-((R)-3-(3-methyl-2-oxoimidazolidin-1-yl)piperidin-1-yl)pyrazine-2-carboxamide]	< 5		10 to 1000
CN1CCN([C@@H]2CCCN(c3cnc(C(N)=O)c(Nc4ccc(N5CCN(C[C@@H]6[C@H]7CN(c8ccc9c(c8)C(=O)N(C8CCC(=O)NC8=O)C9=O)C[C@@H]67)CC5)cc4)n3)C2)C1=O (stereo partly drawn) [Compound 38]	< 5		10 to 1000
CN1CCN([C@H]2CCCN(c3cnc(C(N)=O)c(Nc4cnn(C5CCN(CC6CN(c7ccc8c(c7)C(=O)N(C7CCC(=O)NC7=O)C8=O)C6)CC5)c4)n3)C2)C1=O (stereo partly drawn) [Compound 78]	< 5		10 to 1000
CN1CCN(c2cnc(C(N)=O)c(Nc3ccc(C4CCN(C[C@H]5CCN(c6ccc7c(c6)C(=O)N(C6CCC(=O)NC6=O)C7=O)C5)CC4)cc3)n2)CC1 (stereo partly drawn) [Compound 157]	5 to 15		> 1000
CN1CCN([C@@H]2CCCN(c3cnc(C(N)=O)c(Nc4ccc(C5CCN(C(=O)CCOCCNc6cccc7c6C(=O)N(C6CCC(=O)NC6=O)C7=O)CC5)cc4)n3)C2)C1=O (stereo partly drawn) [Compound 25]	5 to 15		< 10
CN1CCN([C@@H]2CCCN(c3cnc(C(N)=O)c(Nc4ccc(C5CCN(CC6CCN(c7ccc(OC8CCC(=O)NC8=O)cn7)CC6)CC5)cc4)n3)C2)C1=O (stereo partly drawn) [Compound 166]	< 5		> 1000
CN1CCN([C@@H]2CCCN(c3cnc(C(N)=O)c(Nc4ccc(C5CCN(CC6CCN(c7ccc8c(c7)n(C)c(=O)n8C7CCC(=O)NC7=O)CC6)CC5)cc4)n3)C2)C1=O (stereo partly drawn) [Compound 156]	< 5		< 10
CN1CCN([C@@H]2CCCN(c3cnc(C(N)=O)c(Nc4ccc(N5CCN(C(=O)CCOCCCc6ccc7c(c6)C(=O)N(C6CCC(=O)NC6=O)C7)CC5)cc4)n3)C2)C1=O (stereo partly drawn) [Compound 61]	< 5		> 1000
CN1CCN([C@@H]2CCCN(c3cnc(C(N)=O)c(Nc4ccc(C5CCN(C6CN(c7ccc8c(c7)C(=O)N(C7CCC(=O)NC7=O)C8=O)C6)CC5)cc4)n3)C2)C1=O (stereo partly drawn) [Compound 53]	< 5		10 to 1000
CN1CCN([C@@H]2CCCN(c3cnc(C(N)=O)c(Nc4ccc(C5(C)CCN(C(=O)CCOCCC(=O)Nc6cccc7c6CN(C6CCC(=O)NC6=O)C7=O)CC5)cc4)n3)C2)C1=O (stereo partly drawn) [Compound 14]	> 15		> 1000
CN1CCN([C@@H]2CCCN(c3cnc(C(N)=O)c(Nc4ccc(C5CN(C6CCN(c7ccc8c(c7)C(=O)N(C7CCC(=O)NC7=O)C8=O)CC6)C5)cc4)n3)C2)C1=O (stereo partly drawn) [Compound 37]	< 5		10 to 1000
CN1CCN([C@@H]2CCCN(c3cnc(C(N)=O)c(Nc4ccc(C5CCN(C[C@H]6CCN(c7ccc8c(c7)C(=O)N(C7CCC(=O)NC7=O)C8=O)C6)CC5)cc4)n3)C2)C1=O (stereo partly drawn) [Compound 44]	< 5	Yes	
CN1CCN([C@@H]2CCCN(c3cnc(C(N)=O)c(Nc4ccc(OCCCNc5ccc6c(c5)C(=O)N(C5CCC(=O)NC5=O)C6=O)cc4)n3)C2)C1=O (stereo partly drawn) [Compound 64]	> 15		10 to 1000
Cn1cc(Nc2nc(N3CCC[C@H](N4CC5(CN(CC6CCN(c7ccc(C(=O)NC8CCC(=O)NC8=O)nc7)CC6)C5)OC4=O)C3)cnc2C(N)=O)cn1 (stereo partly drawn) [Compound 131]	< 5	Yes	
NC(=O)c1ncc(N2CCC[C@@H](N3CCOC3=O)C2)nc1Nc1ccc(C2CCN(C[C@H]3CCN(c4ccc5c(c4)C(=O)N(C4CCC(=O)NC4=O)C5=O)C3)CC2)cc1 (stereo partly drawn) [Compound 73]	< 5	Yes	
CN1CCN([C@H]2CCCN(c3cnc(C(N)=O)c(Nc4ccc5c(c4)CCN(CC4CN(c6ccc7c(c6)C(=O)N(C6CCC(=O)NC6=O)C7=O)C4)C5)n3)C2)C1=O (stereo partly drawn) [Compound 92]	5 to 15		< 10
